# From patent US7807678B2, “Peptidomimetics of biologically active metallopeptides” (Palatin Technologies, Inc., priority 2001, dated 2010)
# How the values were obtained:
# [1] = target: T1, MC1-R (B-16 mouse melanoma cells) (Mus musculus, UniProt Q01727); experiment: Competitive inhibition binding assay, 125I-NDP-α-MSH, MC1-R; conditions: for Inhibition at 1 μM MC1-R: 1 μM compound, inhibition of 125I-NDP-α-MSH binding, mean of triplicates, results less than 0% reported as 0%
# T1 construct: B-16 mouse melanoma cells (containing MC1-R); endogenous in cells; host or cells: B-16 mouse melanoma cells
# T1 sequence (Q01727 whole entry): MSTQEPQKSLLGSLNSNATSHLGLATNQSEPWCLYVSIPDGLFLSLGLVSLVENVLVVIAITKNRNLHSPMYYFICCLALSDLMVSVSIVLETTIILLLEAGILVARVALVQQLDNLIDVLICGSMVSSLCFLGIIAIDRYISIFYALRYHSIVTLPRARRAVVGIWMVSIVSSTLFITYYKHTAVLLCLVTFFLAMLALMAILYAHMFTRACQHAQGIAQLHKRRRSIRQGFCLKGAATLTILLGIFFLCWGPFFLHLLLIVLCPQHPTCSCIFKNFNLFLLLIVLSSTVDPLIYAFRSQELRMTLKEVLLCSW
# Procedure: (§1) The competitive inhibition binding assay was conducted using membranes prepared from hMC3-R, hMC4-R, hMC5-R, and B-16 mouse melanoma cells (containing MC1-R) using 0.4 nM ^125I-NDP-α-MSH (New England Nuclear, Boston, Mass., USA) in 50 mM HEPES buffer containing 1 mM MgCl2, 2 mM CaCl2, and 5 mM KCl, at pH 7.2. The assay tube also contained a chosen concentration of the test peptidomimetic of this invention, generally 1 μM, for determining its efficacy in inhibiting the binding of ^125I-NDP-α-MSH to its receptor.
# (§2) Incubation was for 90 minutes at room temperature, after which the assay mixture was filtered and the membranes washed three times with ice cold buffer. The filter was dried and counted in a gamma counter for remaining radioactivity bound to the membranes. 100% specific binding was defined as the difference in radioactivity (cpm) bound to cell membranes in the absence and presence of 1 μM α-MSH. […] Each assay was conducted in triplicate and the actual mean values are described.
# MC3-R = MC3-R (Homo sapiens, UniProt P41968); experiment: Competitive inhibition binding assay, 125I-NDP-α-MSH, MC3-R; parameters: expressed in transfected cells; conditions: for Inhibition at 1 μM MC3-R: 1 μM compound, inhibition of 125I-NDP-α-MSH binding, mean of triplicates, results less than 0% reported as 0%
# Chain of MC3-R (P41968 whole entry): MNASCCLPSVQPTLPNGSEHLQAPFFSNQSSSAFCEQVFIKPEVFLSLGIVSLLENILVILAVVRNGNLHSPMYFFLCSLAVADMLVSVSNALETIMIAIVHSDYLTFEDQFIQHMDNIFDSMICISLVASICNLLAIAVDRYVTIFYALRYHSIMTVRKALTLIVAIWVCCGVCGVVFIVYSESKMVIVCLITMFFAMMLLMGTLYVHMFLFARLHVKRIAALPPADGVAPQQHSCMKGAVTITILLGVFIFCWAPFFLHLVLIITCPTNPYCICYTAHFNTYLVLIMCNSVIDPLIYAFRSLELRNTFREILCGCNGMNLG
# Procedure: as §1, §2
# MC4-R = MC4-R (Homo sapiens, UniProt P32245); experiment: Competitive inhibition binding assay, 125I-NDP-α-MSH, MC4-R; parameters: expressed in transfected cells; conditions: for Inhibition at 1 μM MC4-R: 1 μM compound, inhibition of 125I-NDP-α-MSH binding, mean of triplicates, results less than 0% reported as 0%
# Chain of MC4-R (P32245 whole entry): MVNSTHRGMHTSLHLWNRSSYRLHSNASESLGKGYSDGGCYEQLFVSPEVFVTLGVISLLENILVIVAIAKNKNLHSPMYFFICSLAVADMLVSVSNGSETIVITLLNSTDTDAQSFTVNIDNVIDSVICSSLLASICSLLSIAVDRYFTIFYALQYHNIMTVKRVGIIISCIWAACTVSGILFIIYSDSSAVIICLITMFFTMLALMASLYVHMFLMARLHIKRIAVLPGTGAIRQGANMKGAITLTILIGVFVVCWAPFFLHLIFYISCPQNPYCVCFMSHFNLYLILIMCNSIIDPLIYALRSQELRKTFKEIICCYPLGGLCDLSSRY
# Procedure: as §1, §2
# MC5-R = MC5-R (Homo sapiens, UniProt P33032); experiment: Competitive inhibition binding assay, 125I-NDP-α-MSH, MC5-R; parameters: expressed in transfected cells; conditions: for Inhibition at 1 μM MC5-R: 1 μM compound, inhibition of 125I-NDP-α-MSH binding, mean of triplicates, results less than 0% reported as 0%
# Chain of MC5-R (P33032 whole entry): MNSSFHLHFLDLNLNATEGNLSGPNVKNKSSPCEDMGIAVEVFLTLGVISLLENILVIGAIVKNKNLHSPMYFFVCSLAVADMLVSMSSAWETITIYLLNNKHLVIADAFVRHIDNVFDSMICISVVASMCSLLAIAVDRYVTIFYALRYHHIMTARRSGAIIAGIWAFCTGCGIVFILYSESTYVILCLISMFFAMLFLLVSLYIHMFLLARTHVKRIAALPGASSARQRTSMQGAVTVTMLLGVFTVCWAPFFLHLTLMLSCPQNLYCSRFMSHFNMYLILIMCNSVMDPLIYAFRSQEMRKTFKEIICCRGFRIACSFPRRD
# Procedure: as §1, §2
SMILES,Inhibition at 1 μM MC1-R [1] [%],Inhibition at 1 μM MC3-R (MC3-R) [%],Inhibition at 1 μM MC4-R (MC4-R) [%],Inhibition at 1 μM MC5-R (MC5-R) [%],inhibition at 1 µM [1] [%],inhibition at 1 µM (MC3-R) [%],inhibition at 1 µM (MC4-R) [%],inhibition at 1 µM (MC5-R) [%]
N=C(N)NCCCC[C@H]1C(=O)N(CCc2ccc3ccccc3c2)CCN1C(=O)[C@H](N)Cc1ccc(Cl)cc1Cl [Example 67],66,68,96,42,,,,
N[C@H](Cc1ccc(Cl)cc1Cl)C(=O)N1CCN(CCc2ccc3ccccc3c2)C(=O)[C@@H]1CCCNc1ncccn1 [Example 68],3,9,12,19,,,,
N[C@H](Cc1ccc(Cl)cc1Cl)C(=O)N1CCN(CCc2ccc3ccccc3c2)C(=O)[C@@H]1CCCNc1cc[nH]n1 [Example 69],20,8,3,12,,,,
N[C@H](Cc1ccc(Cl)cc1Cl)C(=O)N1CCN(CCc2ccc3ccccc3c2)C(=O)[C@@H]1CCCNc1nncs1 [Example 70],28,31,70,32,,,,
N=C(N)NCCCC[C@H]1C(=O)N(CCc2ccc3ccccc3c2)CCN1C(=O)[C@H](N)Cc1ccc2ccccc2c1 [Example 71],60,73,97,57,,,,
CNC(=N)NCCC[C@H]1C(=O)N(CCc2ccc3ccccc3c2)CCN1C(=O)[C@H](N)Cc1ccc(Cl)cc1Cl [Example 72],19,43,93,27,,,,
CCNC(=N)NCCC[C@H]1C(=O)N(CCc2ccc3ccccc3c2)CCN1C(=O)[C@H](N)Cc1ccc(Cl)cc1Cl [Example 73],14,35,91,24,,,,
CCCNC(=N)NCCCC1C(=O)N(CCc2ccc3ccccc3c2)CCN1C(=O)C(N)Cc1ccc(Cl)cc1Cl (stereo not drawn) [Example 74],13,34,88,26,,,,
CC(C)NC(=N)NCCCC1C(=O)N(CCc2ccc3ccccc3c2)CCN1C(=O)C(N)Cc1ccc(Cl)cc1Cl (stereo not drawn) [Example 75],37,40,85,28,,,,
N=C(N)NCCC[C@H]1C(=O)N(CCc2ccc3ccccc3c2)CCN1C(=O)COc1ccc(Cl)cc1Cl [Example 77],,,,,15,0,24,20
CCCCCCC(=O)N[C@@H](COCc1ccccc1)C(=O)N[C@H](Cc1ccc(Cl)cc1)C(=O)N1CCN(CCc2c[nH]c3ccccc23)C(=O)[C@@H]1CCCCN [Example 78],96,72,99,99,,,,
NCCCC[C@H]1C(=O)N2C(CC[C@@H]2COc2ccc3ccccc3c2)N1C(=O)[C@@H](Cc1ccc(Cl)cc1)NC(=O)[C@@H](N)COCc1ccccc1 (stereo partly drawn) [Example 79],90,14,81,86,,,,
NCCCC[C@H]1C(=O)N2C(CC[C@@H]2COc2ccc3ccccc3c2)N1C(=O)[C@@H](Cc1ccccc1Cl)NC(=O)[C@@H](N)COCc1ccccc1 (stereo partly drawn) [Example 82],28,0,60,38,,,,
NCCCC[C@H]1C(=O)N2C(CC[C@@H]2COc2ccc3ccccc3c2)N1C(=O)[C@@H](Cc1ccccc1Cl)NC(=O)[C@@H]1Cc2ccccc2CN1 (stereo partly drawn) [Example 83],42,2,89,38,,,,
NCCCC[C@H]1C(=O)N2C(CC[C@@H]2COc2ccc3ccccc3c2)N1C(=O)[C@@H](Cc1ccccc1Cl)NC(=O)[C@@H]1C[C@@H](OCc2ccccc2)CN1 (stereo partly drawn) [Example 84],44,0,74,37,,,,
